Measurements published in article PMC6429183, “Identification of Compounds That Inhibit Estrogen-Related Receptor Alpha Signaling Using High-Throughput Screening Assays” (Molecules, 2019).
“And” between values parts separate entries of the source, which are not always exact repeats. Equal values may be shown once. Each block holds one compound with its values, some of them ahead of it.

Key:
COX8α = test: qRT-PCR mRNA expression of ERR downstream gene COX8α; format: cell-based; conditions: ERR reporter cells, vs GAPDH, DMSO = 0%
Method: (§1) Total RNA was isolated from treated ERR reporter cells using an RNeasy Mini Kit (Qiagen, Germantown, MD, USA), homogenized using a QIAshredder (Qiagen), and reverse transcribed with a High-Capacity RNA-to-cDNA™ Kit (ThermoFisher Scientific, Inc.) following the manufacturers’ instructions. Expression of ERRα, COX8α, IDH3α, PPARα, COX4I1, and cytochrome c genes was normalized against GAPDH. All primers were purchased from ThermoFisher Scientific, Inc. Real-time PCR assays were performed in 384-well plates on a QuantStudio 5 (Applied Biosystems, Foster City, CA, USA) with TaqMan™ Gene Expression Master Mix (ThermoFisher Scientific, Inc.). Induction values were calculated using the equation: Fold = 2^ΔΔCt, where ΔCt represents the differences in cycle threshold numbers between each of the target genes and GAPDH, and ΔΔCt represents the relative change in these differences between control and treatment groups. Experimental data are presented as a mean of triplicate determinations ± SD. Statistical comparisons were made by t-test, while the statistical significance was set at p values of <0.05 (light blue), <0.01 (medium blue), and <0.001 (dark blue).

IDH3α = test: qRT-PCR mRNA expression of ERR downstream gene IDH3α; format: cell-based; conditions: ERR reporter cells, vs GAPDH, DMSO = 0%
Method: as §1

PPARα = test: qRT-PCR mRNA expression of ERR downstream gene PPARα; format: cell-based; conditions: 12 µM; ERR reporter cells; vs GAPDH, DMSO = 0%
COX4I1 = test: qRT-PCR mRNA expression of ERR downstream gene COX4I1; format: cell-based; conditions: ERR reporter cells, vs GAPDH, DMSO = 0%
Method: as §1, with “Experimental data are presented as a mean of triplicate determinations ± SD. Statistical comparisons were made by t-test, while the statistical significance was set at p values of <0.05 (light blue), <0.01 (medium blue), and <0.001 (dark blue).” left out

cytochrome c = test: qRT-PCR mRNA expression of ERR downstream gene cytochrome c; format: cell-based; conditions: ERR reporter cells, vs GAPDH, DMSO = 0%
Method: as §1

[1] = tested on: Nrf2/antioxidant response element (ARE); test: Nrf2/ARE-HepG2 β-lactamase reporter agonist assay; format: cell-based; conditions: agonist mode, heatmap outcome
Method: After the assay plates were incubated at 37 °C for 5–6 h, 23 nL of compounds dissolved in DMSO or positive controls were transferred to the assay plates via a Wako Pintool station (Wako). Except for ARE and p53, all other assays received 1 µL/well agonist (10 nM R1881 for AR; 0.5 and 5 nM β-estradiol for ERα and ERβ respectively; 300 µM CDCA for FXR; 50 nM Rosiglitazone for PPARγ; and 5 nM R5020 for PR) or assay medium using a Flying Reagent Dispenser (FRD). The assay plates were incubated for 16 h (AR, Nrf2/ARE, ERβ, FXR, p53, and PR), 17 h (PPARγ), or 18 h (ERα) at 37 °C, and 1 µL/well LiveBLAzer™ FRET-B/G CCF4-AM substrate (ThermoFisher Scientific, Inc.) detection mix was added using an FRD and the plates were incubated at room temperature for 2 h. […] Data were expressed as the ratio of 460/530 nm emission values.

[2] = tested on: ERR reporter HEK293 cells; test: CellTiter-Fluor cell viability assay multiplexed with ERR reporter assay; format: cell-based
Method: (§2) ERR or PGC/ERR reporter HEK293 cells suspended in culture medium without puromycin were dispensed at 2500 cells/5 μL/well in tissue culture–treated 1536-well white assay plates (Greiner Bio-One North America, Monroe, NC, USA) using a Thermo Scientific Multidrop Combi (ThermoFisher Scientific, Inc.). […] After the cells were incubated at 37 °C with 5% CO2 for 6 h, 23 nL of compounds or control, XTC790, was transferred into the assay plates using a Wako Pintool station (Wako Automation, San Diego, CA, USA). The assay plates were incubated at 37 °C for 18 h, followed by the addition of 5 μL ONE-Glo luciferase reagent (Promega, Madison, WI, USA) using a Flying Reagent Dispenser (Aurora Discovery, Carlsbad, CA, USA). After 30 min of incubation at room temperature, the luminescence intensity of the assay plates was quantified using a ViewLux plate reader (PerkinElmer, Shelton, CT, USA). The assays were performed three times for each compound concentration. These ERR and PGC/ERR reporter assays were multiplexed with the CellTiter-Fluor Cell Viability Assay (Promega), a fluorescence-based cell viability assay, to assess compound cytotoxicity.
The qHTS data were analyzed as described previously. […] The DMSO-only compound plates at the beginning and end of the compound plate stack were used to correct the data set by applying an in-house pattern correction algorithm. The half maximum inhibition values (IC50) for each compound and maximum response (efficacy) values were obtained by fitting the concentration-response curves of each compound to a four-parameter Hill equation [91]. […] For each reading, the activity outcome of a test compound was first categorized by the average curve rank from the triplicate runs and the reproducibility calls. The final activity outcome of each compound was based on the ERR antagonist readout activity and cell viability counter screen.

[3] = tested on: PGC/ERR reporter HEK293 cells; test: CellTiter-Fluor cell viability assay multiplexed with PGC/ERR reporter assay; format: cell-based
Method: as §2
The qHTS data were analyzed as described previously. Each titration point was normalized relative to the positive control compound (XCT790 = −100%) and DMSO-only wells (0%) according to the following equation: % Activity = [(Vcompound − VDMSO)/(VDMSO − Vpos)] × 100, where Vcompound denotes the compound well values, Vpos denotes the median value of the positive control wells, and VDMSO denotes the median values of the DMSO-only wells. The DMSO-only compound plates at the beginning and end of the compound plate stack were used to correct the data set by applying an in-house pattern correction algorithm. The half maximum inhibition values (IC50) for each compound and maximum response (efficacy) values were obtained by fitting the concentration-response curves of each compound to a four-parameter Hill equation [91]. Compounds were designated as Class 1–4 according to the type of concentration–response curve observed. For each reading, the activity outcome of a test compound was first categorized by the average curve rank from the triplicate runs and the reproducibility calls. The final activity outcome of each compound was based on the ERR antagonist readout activity and cell viability counter screen.

[4] = molecular target: T1, ERRα with PGC-1α (PGC/ERR pathway) (Homo sapiens, UniProt P11474); test: PGC/ERR reporter (luciferase) qHTS assay, PGC/ERR-HEK293; conditions: for EC50: mean ± SD, triplicate
T1 sequence (P11474 1-423): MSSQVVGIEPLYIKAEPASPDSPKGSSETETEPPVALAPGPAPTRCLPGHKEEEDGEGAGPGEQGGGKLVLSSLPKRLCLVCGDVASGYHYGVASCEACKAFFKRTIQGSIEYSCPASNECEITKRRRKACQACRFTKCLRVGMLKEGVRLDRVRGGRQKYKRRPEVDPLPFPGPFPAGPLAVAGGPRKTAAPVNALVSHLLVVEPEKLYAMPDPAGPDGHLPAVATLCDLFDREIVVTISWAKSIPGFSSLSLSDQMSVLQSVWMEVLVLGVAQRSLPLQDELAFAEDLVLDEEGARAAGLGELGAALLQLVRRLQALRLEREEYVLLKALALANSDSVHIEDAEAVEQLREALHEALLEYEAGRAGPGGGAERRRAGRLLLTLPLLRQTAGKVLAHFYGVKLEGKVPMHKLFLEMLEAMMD
Method: (§3) The ERR reporter HEK293 cells were cultured in high glucose DMEM medium (ThermoFisher Scientific, Inc., Waltham, MA, USA) supplemented with 10% fetal bovine serum (FBS; ThermoFisher Scientific, Inc.), 4 mM of L-glutamine (ThermoFisher Scientific, Inc.), 1 mM of sodium pyruvate (ThermoFisher Scientific, Inc.), 100 U/mL of penicillin and 100 mg/mL of streptomycin (ThermoFisher Scientific, Inc.). PGC/ERR reporter HEK293 cells were cultured in the same medium as the ERR reporter HEK293 cells with an additional 1 μg/mL puromycin (ThermoFisher Scientific, Inc.) as the selection marker for PGC-1α expression.
(§4) The DMSO-only compound plates at the beginning and end of the compound plate stack were used to correct the data set by applying an in-house pattern correction algorithm [90]. The half maximum inhibition values (IC50) for each compound and maximum response (efficacy) values were obtained by fitting the concentration-response curves of each compound to a four-parameter Hill equation [91]. […] For each reading, the activity outcome of a test compound was first categorized by the average curve rank from the triplicate runs and the reproducibility calls. The final activity outcome of each compound was based on the ERR antagonist readout activity and cell viability counter screen.

[5] = molecular target: T2, estrogen-related receptor alpha (ERRα) (Homo sapiens, UniProt P11474); test: ERR reporter (luciferase) antagonist qHTS assay, ERR-HEK293; conditions: for EC50: mean ± SD, triplicate; for ERR-HEK293 Primary Efficacy: primary qHTS, DMSO = 0%
T2 sequence (P11474 1-423): T1 sequence (P11474 1-423)
Method: as §3, §4

Compound: COc1cc(/C=C(\C#N)C(=O)Nc2nnc(C(F)(F)F)s2)ccc1OCc1ccc(C(F)(F)F)cc1C(F)(F)F [XCT790]
- Percent inhibition of mRNA gene expression, COX8α (COX8α; 12 µM, mean ± S.D.): 65.0 ± 8.41%
- Percent inhibition of mRNA gene expression, IDH3α (IDH3α; 12 µM): 42.6 ± 6.59%
- Percent inhibition of mRNA gene expression, PPARα (PPARα): 16.0 ± 1.70%
- Percent inhibition of mRNA gene expression, COX4I1 (COX4I1; 12 µM): 46.0 ± 2.16%
- Percent inhibition of mRNA gene expression, Cytochrome C (cytochrome c; 12 µM): 60.8 ± 2.16%

Compound: Acriflavine hydrochloride
- Percent inhibition of mRNA gene expression, COX8α (COX8α; 3 µM): 30.2 ± 18.2%
- Percent inhibition of mRNA gene expression, IDH3α (IDH3α; 3 µM): 74.2% and 74.2 ± 9.92%
- Percent inhibition of mRNA gene expression, COX4I1 (COX4I1; 3 µM): 4.76 ± 8.24%
- Percent inhibition of mRNA gene expression, Cytochrome C (cytochrome c; 3 µM): 41.8% and 41.8 ± 3.72%
- activity in the Nrf2-ARE assay [1]: inconclusive

- EC50 ([4]; PGC/ERR-HEK293 Follow-Up EC50, follow-up screen): 1570 ± 354 nM
- EC50 ([4]; PGC/ERR-HEK293 Primary EC50, primary qHTS, 18 h): 845 ± 97.1 nM
- PGC/ERR-HEK293 Follow-Up Efficacy ([4]; follow-up screen, negative = antagonism, positive = agonism): −61.5 ± 12.6%
- activity in the ERR/PGC assay ([4]; in words): antagonism
- PGC/ERR-HEK293 Primary Efficacy ([4]; primary qHTS, negative = antagonism, positive = agonism): −68.4 ± 7.64%
- EC50 ([5]; ERR-HEK293 Follow-Up EC50, follow-up (confirmation) screen): 1600 ± 104 nM
- EC50 ([5]; ERR-HEK293 Primary EC50, primary qHTS, 18 h, 15 concentrations): 1060 ± 122 nM
- ERR-HEK293 Follow-Up Efficacy ([5]; follow-up screen, relative to XCT790 = −100%): −104 ± 7.68%
- ERR-HEK293 Primary Efficacy ([5]; relative to XCT790 = −100%): −90.9 ± 4.94%
- ERR-HEK293 Primary Efficacy ([5]; relative to XCT790 = −100%, listed as methodichlorophen): −90.9%
Compound: Cc1nc(N)nc(N)c1-c1ccc(Cl)c(Cl)c1 [Methodichlorophen]
- ERR-HEK293 Follow-Up Viability EC50 ([2]; follow-up screen, viability): Inactive
- ERR-HEK293 Primary Viability EC50 ([2]; primary qHTS, viability counter screen): Inactive
- PGC/ERR-HEK293 Follow-Up Viability EC50 ([3]; follow-up screen): Inactive
- PGC/ERR-HEK293 Primary Viability EC50 ([3]; primary qHTS): Inactive
- Percent inhibition of mRNA gene expression, COX8α (COX8α; 2 µM): 17.1 ± 29.5%
- Percent inhibition of mRNA gene expression, IDH3α (IDH3α; 2 µM): 50.8% and 50.8 ± 8.69%
- Percent inhibition of mRNA gene expression, COX4I1 (COX4I1; 2 µM): 12.5% and 12.5 ± 2.60%
- Percent inhibition of mRNA gene expression, Cytochrome C (cytochrome c; 2 µM): 47.6% and 47.6 ± 7.45%
- activity in the Nrf2-ARE assay [1]: active agonists
